According to patent US4065616A, “Processes for production of a 1-N-(α-hydroxy-.PHI.-amino alkanoyl)-3-deoxy-5-O-pentafuranosyl neamine and new compounds produced by the same processes” (Zaidan Hojin Biseibutsu Kagaku Kenkyu Kai, priority 1975, dated 1977):
In brackets after ≈: the same amount, converted by molar mass. Where two headings read alike, the source gives them in different places.

Assays:
[1] = system: kanamycin-resistant bacteria; details: in words, prior work; cited from earlier work
[2] = system: Escherichia coli K-12 ML 1629; experiment: M.I.C. by standard serial dilution method; type: cell-based; details: read-out: minimum inhibitory concentration (M.I.C.)
Description: (§1) These particular compounds, that is, 1-n-(α-hydroxy-ω-aminoalkanoyl)-3'-deoxy-5-O-pentofuranosylneamines according to the aforesaid general formula (I) have useful antibacterial activity against a wide variety of bacteria, including gram-negative bacteria and gram-positive bacteria. The minimum inhibitory concentration (M.I.C.) (mcg/ml) of these compounds against various organisms was determined by a standard serial dilution method at an incubation temperature of 37° C, the estimation being made after 18 hours incubation or each test organism, except that the incubation time was 48 hours for Mycobacterium smegmatis. The incubation medium used was nutrient agar.

Proteus rettgeri GN 311 = experiment: M.I.C. by standard serial dilution method; type: cell-based; details: Providencia rettgeri, GN311, nutrient agar, 37° C, 18 hours, read-out: minimum inhibitory concentration (M.I.C.)
Description: as §1

Sarcina lutea PCl 1001 = experiment: M.I.C. by standard serial dilution method; type: cell-based; details: Micrococcus luteus, PCL1001, nutrient agar, 37° C, 18 hours, read-out: minimum inhibitory concentration (M.I.C.)
Description: as §1

Bacillus subtilis B-558 = experiment: M.I.C. by standard serial dilution method; type: cell-based; details: B558, B. subtilis B-558, nutrient agar, 37° C, 18 hours, read-out: minimum inhibitory concentration (M.I.C.)
Description: as §1

[3] = system: Pseudomonas aeruginosa A3; experiment: M.I.C. by standard serial dilution method; type: cell-based; details: P. aeruginosa A3, nutrient agar, 37° C, 18 hours, read-out: minimum inhibitory concentration (M.I.C.)
Description: as §1

[4] = system: Mycobacterium smegmatis ATCC 607; experiment: M.I.C. by standard serial dilution method; type: cell-based; details: Mycolicibacterium smegmatis, ATCC607, nutrient agar, 37° C, 48 hours, read-out: minimum inhibitory concentration (M.I.C.)
Description: as §1

[5] = system: Escherichia coli K-12 JR66/W677; experiment: M.I.C. by standard serial dilution method; type: cell-based; details: K12JR66/W677, 18 h, read-out: minimum inhibitory concentration (M.I.C.)
Description: as §1

[6] = system: Pseudomonas aeruginosa 99; experiment: M.I.C. by standard serial dilution method; type: cell-based; details: P. aeruginosa 99, nutrient agar, 37° C, 18 hours, read-out: minimum inhibitory concentration (M.I.C.)
Description: as §1

[7] = system: Escherichia coli K-12 W677; experiment: M.I.C. by standard serial dilution method; type: cell-based; details: K12W677, E. coli K-12 W677, nutrient agar, 37° C, 18 hours, read-out: minimum inhibitory concentration (M.I.C.)
Description: as §1

[8] = system: Staphylococcus aureus FDA 209P; experiment: M.I.C. by standard serial dilution method; type: cell-based; details: FDA209P, read-out: minimum inhibitory concentration (M.I.C.)
Description: as §1

[9] = system: Escherichia coli K-12 LA 290 R64; experiment: M.I.C. by standard serial dilution method; type: cell-based; details: K12LA290R64, 18 h, read-out: minimum inhibitory concentration (M.I.C.)
Description: as §1

[10] = system: Escherichia coli K-12 ML 1630; experiment: M.I.C. by standard serial dilution method; type: cell-based; details: K12ML1630, E. coli K-12 ML 1630, nutrient agar, 37° C, 18 hours, read-out: minimum inhibitory concentration (M.I.C.)
Description: as §1

Escherichia coli NIHJ = experiment: M.I.C. by standard serial dilution method; type: cell-based; details: E. coli NIHJ, nutrient agar, 37° C, 18 hours, read-out: minimum inhibitory concentration (M.I.C.)
Description: as §1

[11] = system: Escherichia coli K-12 LA 290 R56; experiment: M.I.C. by standard serial dilution method; type: cell-based; details: K12LA290R56, 18 h, read-out: minimum inhibitory concentration (M.I.C.)
Description: as §1

[12] = system: Klebsiella pneumoniae PCI 602; experiment: M.I.C. by standard serial dilution method; type: cell-based; details: read-out: minimum inhibitory concentration (M.I.C.)
Description: as §1

[13] = system: Klebsiella pneumoniae Type 22, No. 3038; experiment: M.I.C. by standard serial dilution method; type: cell-based; details: read-out: minimum inhibitory concentration (M.I.C.)
Description: as §1

[14] = system: Escherichia coli K-12 LA 290 R55; experiment: M.I.C. by standard serial dilution method; type: cell-based; details: K12LA290R55, 18 h, read-out: minimum inhibitory concentration (M.I.C.)
Description: as §1

[15] = system: Pseudomonas aeruginosa GN 315; experiment: M.I.C. by standard serial dilution method; type: cell-based; details: GN315, P. aeruginosa GN 315, nutrient agar, 37° C, 18 hours, read-out: minimum inhibitory concentration (M.I.C.)
Description: as §1

[16] = system: Pseudomonas aeruginosa No. 12; experiment: M.I.C. by standard serial dilution method; type: cell-based; details: P. aeruginosa No. 12, nutrient agar, 37° C, 18 hours, read-out: minimum inhibitory concentration (M.I.C.)
Description: as §1

[17] = system: Pseudomonas aeruginosa TI-13; experiment: M.I.C. by standard serial dilution method; type: cell-based; details: TI13, P. aeruginosa TI-13, nutrient agar, 37° C, 18 hours, read-out: minimum inhibitory concentration (M.I.C.)
Description: as §1

[18] = system: Escherichia coli K-12 ML 1410 R81; experiment: M.I.C. by standard serial dilution method; type: cell-based; details: 18 h, read-out: minimum inhibitory concentration (M.I.C.)
Description: as §1

Salmonella typhosa T-63 = experiment: M.I.C. by standard serial dilution method; type: cell-based; details: Salmonella enterica, 18 h, read-out: minimum inhibitory concentration (M.I.C.)
Description: as §1

[19] = system: Escherichia coli K-12 ML 1410; experiment: M.I.C. by standard serial dilution method; type: cell-based; details: K12ML1410, E. coli K-12 ML 1410, nutrient agar, 37° C, 18 hours, read-out: minimum inhibitory concentration (M.I.C.)
Description: as §1

Proteus rettgeri GN 466 = experiment: M.I.C. by standard serial dilution method; type: cell-based; details: Providencia rettgeri, read-out: minimum inhibitory concentration (M.I.C.)
Description: as §1

Escherichia coli K-12 = experiment: M.I.C. by standard serial dilution method; type: cell-based; details: K12, E. coli K-12, nutrient agar, 37° C, 18 hours, read-out: minimum inhibitory concentration (M.I.C.)
Description: as §1

## NC[C@H]1O[C@H](O[C@H]2[C@H](O)[C@@H](O[C@H]3O[C@H](CO)[C@@H](O)[C@H](N)[C@H]3O)[C@H](N)C[C@@H]2N)[C@H](O)C[C@@H]1O [3'-deoxykanamycin A]
[1]
  antibacterial activity against resistant bacteria: high antibacterial activity against the above-mentioned resistant bacteria

## NC[C@H]1O[C@H](O[C@H]2[C@H](O)[C@@H](O[C@H]3O[C@H](CO)[C@@H](O)[C@H](N)[C@H]3O)[C@H](N)C[C@@H]2N)[C@H](N)C[C@@H]1O [3'-deoxykanamycin B]
[1]
  antibacterial activity against resistant bacteria: high antibacterial activity against the above-mentioned resistant bacteria

## NC[C@H](O)C(=O)N[C@@H]1C[C@H](N)[C@@H](O[C@H]2O[C@H](CN)[C@@H](O)C[C@H]2N)[C@H](O[C@@H]2O[C@H](CO)[C@H](O)[C@H]2O)[C@H]1O [Compound No. 2, 1-n-((S)-3-amino-2-hydroxypropionyl)-3'-deoxy-5-O-β-D-xylofuranosylneamine]
[2]; K12ML1629, 18 h
  MIC: 1.56 µg/mL (≈ 2.97 µM)
Proteus rettgeri GN 311
  MIC: 6.25 µg/mL (≈ 11.9 µM)
Sarcina lutea PCl 1001
  MIC: 25 µg/mL (≈ 47.6 µM)
Bacillus subtilis B-558
  MIC: 0.78 µg/mL (≈ 1.48 µM)
[3]
  MIC: 3.12 µg/mL (≈ 5.94 µM)
[4]
  MIC: 0.39 µg/mL (≈ 0.742 µM)
[5]
  MIC: 0.78 µg/mL (≈ 1.48 µM)
[6]
  MIC: 12.5 µg/mL (≈ 23.8 µM)
[7]
  MIC: 0.78 µg/mL (≈ 1.48 µM)
[8]; 18 h
  MIC: 1.56 µg/mL (≈ 2.97 µM)
[9]
  MIC: 0.78 µg/mL (≈ 1.48 µM)
[10]
  MIC: 1.56 µg/mL (≈ 2.97 µM)
Escherichia coli NIHJ
  MIC: 0.78 µg/mL (≈ 1.48 µM)
[11]
  MIC: 0.78 µg/mL (≈ 1.48 µM)
[12]; PCI602, 18 h
  MIC: 1.56 µg/mL (≈ 2.97 µM)
[13]; 18 h
  MIC: 1.56 µg/mL (≈ 2.97 µM)
[14]
  MIC: 0.78 µg/mL (≈ 1.48 µM)
[15]
  MIC: > 100 µg/mL
[16]
  MIC: 12.5 µg/mL (≈ 23.8 µM)
[17]
  MIC: 25 µg/mL (≈ 47.6 µM)
[18]
  MIC: 3.12 µg/mL (≈ 5.94 µM)
Salmonella typhosa T-63
  MIC: 0.78 µg/mL (≈ 1.48 µM)
[19]
  MIC: 3.12 µg/mL (≈ 5.94 µM)
Proteus rettgeri GN 466; GN466, 18 h
  MIC: 1.56 µg/mL (≈ 2.97 µM)
Escherichia coli K-12
  MIC: 0.39 µg/mL (≈ 0.742 µM)

## NCC[C@H](O)C(=O)N[C@@H]1C[C@H](N)[C@@H](O[C@H]2O[C@H](CN)[C@@H](O)C[C@H]2N)[C@H](O[C@@H]2O[C@H](CO)[C@@H](O)[C@H]2O)[C@H]1O [Compound No. 5, 1-N-((S)-4-amino-2-hydroxybutyryl)-3'-deoxy-5-O-β-D-ribofuranosylneamine]
[2]; K12ML1629, E. coli K-12 ML 1629, nutrient agar, 37° C, 18 hours
  MIC: 0.39 µg/mL (≈ 0.723 µM)
Proteus rettgeri GN 311
  MIC: 3.12 µg/mL (≈ 5.78 µM)
Sarcina lutea PCl 1001
  MIC: 25 µg/mL (≈ 46.3 µM)
Bacillus subtilis B-558
  MIC: < 0.2 µg/mL
[3]
  MIC: 3.12 µg/mL (≈ 5.78 µM)
[4]
  MIC: < 0.2 µg/mL
[5]
  MIC: 1.56 µg/mL (≈ 2.89 µM)
[6]
  MIC: 12.5 µg/mL (≈ 23.2 µM)
[7]
  MIC: 0.39 µg/mL (≈ 0.723 µM)
[8]; S. aureus FDA 209P, nutrient agar, 37° C, 18 hours
  MIC: 0.39 µg/mL (≈ 0.723 µM)
[9]
  MIC: 0.2 µg/mL (≈ 0.371 µM)
[10]
  MIC: 1.56 µg/mL (≈ 2.89 µM)
Escherichia coli NIHJ
  MIC: 0.78 µg/mL (≈ 1.45 µM)
[11]
  MIC: 0.39 µg/mL (≈ 0.723 µM)
[12]; PCI602, K. pneumoniae PCI 602, nutrient agar, 37° C, 18 hours
  MIC: 0.39 µg/mL (≈ 0.723 µM)
[13]; K. pneumoniae Type 22, No. 3038, nutrient agar, 37° C, 18 hours
  MIC: 0.78 µg/mL (≈ 1.45 µM)
[14]
  MIC: 0.78 µg/mL (≈ 1.45 µM)
[15]
  MIC: > 100 µg/mL
[16]
  MIC: 25 µg/mL (≈ 46.3 µM)
[17]
  MIC: 25 µg/mL (≈ 46.3 µM)
Salmonella typhosa T-63
  MIC: 0.39 µg/mL (≈ 0.723 µM)
[19]
  MIC: 0.78 µg/mL (≈ 1.45 µM)
Proteus rettgeri GN 466; GN466, Proteus rettgeri GN 466, nutrient agar, 37° C, 18 hours
  MIC: 0.78 µg/mL (≈ 1.45 µM)
Escherichia coli K-12
  MIC: 0.2 µg/mL (≈ 0.371 µM)

## NCCC(O)C(=O)N[C@@H]1C[C@H](N)[C@@H](O[C@H]2O[C@H](CN)CC[C@H]2N)[C@H](O)[C@H]1O[C@H]1O[C@H](CO)[C@@H](O)[C@H](N)[C@H]1O (stereo partly drawn) [1-N-(4-amino-2-hydroxybutyryl)-DKB]
[1]
  antibacterial activity against resistant bacteria: active against the kanamycin-resistant bacteria

## NCC(O)C(=O)N[C@@H]1C[C@H](N)[C@@H](O[C@H]2O[C@H](CN)[C@@H](O)[C@H](O)[C@H]2N)[C@H](O)[C@H]1O[C@H]1O[C@H](CO)[C@@H](O)[C@H](N)[C@H]1O (stereo partly drawn) [1-N-isoserylkanamycin B]
[1]
  antibacterial activity against resistant bacteria: active against the kanamycin-resistant bacteria

## NCC(O)C(=O)N[C@@H]1C[C@H](N)[C@@H](O[C@H]2O[C@H](CN)CC[C@H]2N)[C@H](O)[C@H]1O[C@H]1O[C@H](CO)[C@@H](O)[C@H](N)[C@H]1O (stereo partly drawn) [1-N-isoseryl-DKB]
[1]
  antibacterial activity against resistant bacteria: active against the kanamycin-resistant bacteria

## NCC(O)C(=O)N[C@@H]1C[C@H](N)[C@@H](O[C@H]2O[C@H](CN)[C@@H](O)[C@H](O)[C@H]2O)[C@H](O)[C@H]1O[C@H]1O[C@H](CO)[C@@H](O)[C@H](N)[C@H]1O (stereo partly drawn) [1-N-isoserylkanamycin]
[1]
  antibacterial activity against resistant bacteria: active against the kanamycin-resistant bacteria

## NC[C@H]1O[C@H](O[C@H]2[C@H](O[C@@H]3O[C@H](CO)[C@@H](O)[C@H]3O)[C@@H](O)[C@H](N)C[C@@H]2N)[C@H](N)C[C@@H]1O [3'-deoxyribostamycin]
[1]
  antibacterial activity against resistant bacteria: high antibacterial activity against the above-mentioned resistant bacteria

## NCCC(O)C(=O)N[C@@H]1C[C@H](N)[C@@H](O[C@H]2O[C@H](CN)[C@@H](O)[C@H](O)[C@H]2O)[C@H](O)[C@H]1O[C@H]1O[C@H](CO)[C@@H](O)[C@H](N)[C@H]1O (stereo partly drawn) [1-N-(4-amino-2-hydroxybutyryl)-kanamycin]
[1]
  antibacterial activity against resistant bacteria: active against the kanamycin-resistant bacteria
